Test results reported in patent publication US6525022B1, “Receptor specific atrial natriuretic peptides” (Genentech, Inc., priority 1993, dated 2003).
Where two headings read alike, the source gives them in different places. Where a SMILES comes first, the peptide text is derived from it. Bridges are numbered along the chain shown (N, C = ends).

How the values were obtained:
[1] = target: human NEP (hNEP), endopeptidase 24.11 (Homo sapiens, UniProt P08473); assay: Degradation of ANF variants by human NEP, half-life by HPLC
Sequence of human NEP (hNEP), endopeptidase 24.11 (P08473 whole entry): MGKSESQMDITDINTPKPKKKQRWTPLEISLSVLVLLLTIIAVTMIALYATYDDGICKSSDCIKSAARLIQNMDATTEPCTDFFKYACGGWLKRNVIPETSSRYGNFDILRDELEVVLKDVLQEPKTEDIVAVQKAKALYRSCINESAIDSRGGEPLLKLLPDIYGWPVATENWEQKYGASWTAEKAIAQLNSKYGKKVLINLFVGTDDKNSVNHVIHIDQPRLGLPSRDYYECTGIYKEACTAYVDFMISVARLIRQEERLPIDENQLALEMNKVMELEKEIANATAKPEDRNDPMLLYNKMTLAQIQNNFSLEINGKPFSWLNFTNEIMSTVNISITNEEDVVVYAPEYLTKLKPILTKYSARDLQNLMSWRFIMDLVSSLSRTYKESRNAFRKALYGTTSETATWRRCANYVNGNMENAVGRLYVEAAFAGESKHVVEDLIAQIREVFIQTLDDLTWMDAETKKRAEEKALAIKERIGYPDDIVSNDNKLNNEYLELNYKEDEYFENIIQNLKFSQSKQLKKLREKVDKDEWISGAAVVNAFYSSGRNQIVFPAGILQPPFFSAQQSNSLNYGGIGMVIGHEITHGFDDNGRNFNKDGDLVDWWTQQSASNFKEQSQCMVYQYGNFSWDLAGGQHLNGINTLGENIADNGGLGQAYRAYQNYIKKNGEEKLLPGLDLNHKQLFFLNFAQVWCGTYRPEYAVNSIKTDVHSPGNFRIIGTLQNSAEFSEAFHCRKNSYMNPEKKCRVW
Procedure: The half-life of various ANF variants was measured according to the following procedure.
ANF Solution: An accurately weighed amount of ANF or variant thereof was diluted with HEPES buffer (5 ml of 1 M HEPES Buffer and 0.1 ml of Tween 20 diluted to a 100 ml volume with DI water) to make a 0.5 mg/ml solution.
hNEP/HEPES Solution: 7.5 μl of a 1 mg/ml solution of hNEP (see U.S. Pat. No. 4,960,700) is dissolved in 992.5 μl of HEPES buffer (as described above) and vortex mixed. The resulting mixture is stored in a silylated Eppendorf tube and periodically checked for activity against an ANF peptide standard.
Assay conditions: 150 μl of an ANF solution in the HEPES buffer is diluted with 820 μl HEPES buffer and vortex mixed (1 sec). Careful note of the time is taken as 30 μl of the hNEP/HEPES solution is added and the solution is vortex mixed for 1 sec. and analyzed by periodic removal of constant volume aliquots by the HPLC autosampler. A 2.5 cm×50 cm, C-18 reversed-phase column (15 micron, 300 Å]) was used and elution was achieved by using a shallow gradient of increasing acetonitrile. The elution conditions consisted of a 10% to 50% acetonitrile (containing 0.1% TFA) gradient at 0.5% min.^−1. The aqueous phase was 0.1% TFA in water. The peak area of the ANP peptide is recorded at these periodic intervals and a half-life is determined from these values.

[2] = target: T1, human natriuretic peptide receptor-A expressed in 293 cells (Homo sapiens, UniProt P16066); assay: cGMP production in 293 cells expressing hNPR-A; format: cell-based
T1 construct: expressed in transfected cells
T1 sequence (P16066 33-1061): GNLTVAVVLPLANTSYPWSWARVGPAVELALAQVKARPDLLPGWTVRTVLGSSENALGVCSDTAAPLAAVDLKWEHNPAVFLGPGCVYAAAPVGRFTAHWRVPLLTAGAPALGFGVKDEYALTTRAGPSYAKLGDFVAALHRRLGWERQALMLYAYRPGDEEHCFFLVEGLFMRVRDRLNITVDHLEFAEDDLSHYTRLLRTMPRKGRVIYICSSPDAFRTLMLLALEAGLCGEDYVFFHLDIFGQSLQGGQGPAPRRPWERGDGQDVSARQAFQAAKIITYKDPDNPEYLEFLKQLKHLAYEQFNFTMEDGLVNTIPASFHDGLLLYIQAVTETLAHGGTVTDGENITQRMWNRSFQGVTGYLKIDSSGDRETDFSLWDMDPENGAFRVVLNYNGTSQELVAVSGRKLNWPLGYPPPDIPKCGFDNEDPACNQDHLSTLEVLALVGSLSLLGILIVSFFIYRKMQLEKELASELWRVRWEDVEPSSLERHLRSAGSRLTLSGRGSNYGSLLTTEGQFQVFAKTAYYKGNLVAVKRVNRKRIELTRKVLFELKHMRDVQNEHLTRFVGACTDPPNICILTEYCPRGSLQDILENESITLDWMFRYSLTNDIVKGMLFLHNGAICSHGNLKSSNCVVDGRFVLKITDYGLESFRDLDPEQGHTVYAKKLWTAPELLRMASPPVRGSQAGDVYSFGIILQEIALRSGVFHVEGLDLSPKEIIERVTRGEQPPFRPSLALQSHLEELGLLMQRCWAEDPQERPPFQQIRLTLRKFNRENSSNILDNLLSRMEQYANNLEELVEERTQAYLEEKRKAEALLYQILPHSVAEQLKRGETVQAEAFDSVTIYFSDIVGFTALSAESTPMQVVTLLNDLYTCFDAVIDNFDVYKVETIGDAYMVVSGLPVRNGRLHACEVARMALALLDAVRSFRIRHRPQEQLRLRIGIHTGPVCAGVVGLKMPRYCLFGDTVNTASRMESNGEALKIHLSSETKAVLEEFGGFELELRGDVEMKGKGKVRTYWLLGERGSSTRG
Procedure: Stable 293 cell lines were maintained in glycine free F-12/Dulbecco's minimal essential medium (50/50, v/v) with 10% dialyzed fetal calf serum, 10 mM Hepes, […] of G418 (Geneticin, GIBCO/BRL), pH 7.2, in a humidified incubator at 37° C. with 7% CO2, 93% air. Cells were passaged using 136.8 mM NaCL, 2.6 mM KCl, 7.9 mM Na2HPO4, 1.4 mM KH2PO4, pH 7.2 (PBS) with 0.5 mM EDTA. For concentration-response experiments log phase cultures of 293 cell lines were passaged to 12 well plates at a density of 2.5×10^5 cells/well. After 48 hours cultures were approximately 50% confluent, and were used for stimulation of cGMP production. Peptide treatments were carried out essentially as described by Lowe and Fendly (1992). Briefly, dried peptide aliquots were resuspended in 0.1% (v/v) acetic acid to a stock concentration of 50 μM, and diluted to 1 μM in F-12/Dulbecco's minimal essential medium (50/50, v/v) with 25 mM Hepes, 0.1% (w/v) bovine serum albumin, 0.1 mM isobutylmethylxanthine at pH 7.2 (stimulation medium). Five-fold serial dilutions were prepared in stimulation medium using polypropylene tubes, then prewarmed to 37° C. before use. Cell culture medium was aspirated prior to adding 0.5 ml of stimulation medium plus peptides to monolayer cultures for 10 minutes at 37° C. Reactions were stopped by addition of 0.5 ml of ice cold 12% trichloroacetic acid to give a final volume of 1 ml. Culture plates were frozen on dry ice and stored at −20° C. prior to assay. For cGMP measurements samples were thawed at room temperature, and processed as described by Koller et al., Science 252:120-123 (1991), for cGMP radioimmunoassay (Biomedical Technologies, Inc). All stimulations were performed in triplicate, and samples were measured in duplicate for cGMP by radioimmumoassay. Predicted peptide concentrations were corrected based on quantitative amino acid analysis of duplicate samples from the same set of peptide aliquots used for the stimulation experiments.
Data analysis. The competition binding curves and cGMP production dose responses were analyzed by the four-parameter logistic equation with the KaleidaGraph™ program (Synergy Software, PA) to obtain estimates of the IC50 or EC50 values. The non linear least-squares curve fitting program SCATPLOT was used to analyze the competition binding curves according to a one-site or two-site binding model for competitor. A two-site binding model is reported when the fit to the data was statistically better (p<0.05) than a one-site fit.

[3] = isolated human NEP (endopeptidase 24.11) in HEPES buffer, Half-Life (min.), FIG. 7: ANF variants 32 nM/ml, NEP 0.45 μg/ml

Potency in cGMP production compared with rat ANP [2] | Stimulation of cGMP production (agonist efficacy) [2] | half-life at 32 nM/ml [1, 3] [h] | Structure (SMILES) | half-life at 32 nM/ml [1] [h]
potency very similar to rat ANP | full agonists | 5.57 | CC[C@H](C)[C@@H]1NC(=O)[C@H](CCCNC(=N)N)NC(=O)[C@H](CC(=O)O)NC(=O)[C@H]([C@@H](C)CC)NC(=O)[C@H](CO)NC(=O)CNC(=O)[C@H]([C@@H](C)O)NC(=O)[C@H](Cc2ccccc2)NC(=O)[C@@H](NC(=O)[C@H](CO)NC(=O)[C@H](CO)NC(=O)[C@H](CCCNC(=N)N)NC(=O)[C@H](CCCNC(=N)N)NC(=O)[C@H](CC(C)C)NC(=O)[C@@H](N)CO)CSSC[C@@H](C(=O)N[C@@H](CC(N)=O)C(=O)N[C@@H](CO)C(=O)N[C@@H](Cc2ccccc2)C(=O)N[C@@H](CCCNC(=N)N)C(=O)N[C@@H](Cc2ccc(O)cc2)C(=O)O)NC(=O)CNC(=O)[C@H](CC(C)C)NC(=O)CNC(=O)[C@H](CO)NC(=O)[C@H](CCC(N)=O)NC(=O)[C@H](C)NC(=O)[C@H](CCCNC(=N)N)NC1=O [ANF 27] | –
potency very similar to rat ANP | full agonists | 39.9 | CC[C@H](C)[C@@H]1NC(=O)[C@H](CCCNC(=N)N)NC(=O)[C@H](CC(=O)O)NC(=O)[C@H]([C@@H](C)CC)NC(=O)[C@H](CO)NC(=O)CNC(=O)[C@H]([C@@H](C)O)NC(=O)[C@H](Cc2ccccc2)NC[C@@H](NC(=O)[C@H](CO)NC(=O)[C@H](CO)NC(=O)[C@H](CCCNC(=N)N)NC(=O)[C@H](CCCNC(=N)N)NC(=O)[C@H](CC(C)C)NC(=O)[C@@H](N)CO)CSSC[C@@H](C(=O)N[C@@H](CC(N)=O)C(=O)N[C@@H](CO)C(=O)N[C@@H](Cc2ccccc2)C(=O)N[C@@H](CCCNC(=N)N)C(=O)N[C@@H](Cc2ccc(O)cc2)C(=O)O)NC(=O)CNC(=O)[C@H](CC(C)C)NC(=O)CNC(=O)[C@H](CO)NC(=O)[C@H](CCC(N)=O)NC(=O)[C@H](C)NC(=O)[C@H](CCCNC(=N)N)NC1=O [ANF 84] | –

Structure (SMILES) | Potency in cGMP production compared with rat ANP [2] | Stimulation of cGMP production (agonist efficacy) [2] | half-life at 32 nM/ml [1, 3] [h] | half-life at 32 nM/ml [1] [h]
CC[C@H](C)[C@@H]1NC(=O)[C@H](CCCNC(=N)N)NC(=O)[C@H](CC(=O)O)NC(=O)[C@H]([C@@H](C)CC)NC(=O)[C@H](CO)NC(=O)CNC(=O)[C@H]([C@@H](C)O)NC(=O)[C@H](Cc2ccccc2)NC(=O)[C@@H](NC(=O)[C@H](CO)NC(=O)[C@H](CO)NC(=O)[C@H](CCCNC(=N)N)NC(=O)[C@H](CCCNC(=N)N)NC(=O)[C@H](CC(C)C)NC(=O)[C@H](CO)NC(=O)[C@H](CCCNC(=N)N)NC(=O)[C@@H]2CCCN2C(=O)[C@H](C)NC(=O)[C@@H](N)[C@@H](C)O)CSSC[C@@H](C(=O)N[C@@H](CC(N)=O)C(=O)N[C@@H](CO)C(=O)N[C@@H](Cc2ccccc2)C(=O)N[C@@H](CCCNC(=N)N)C(=O)N[C@@H](Cc2ccc(O)cc2)C(=O)O)NC(=O)CNC(=O)[C@H](CC(C)C)NC(=O)CNC(=O)[C@H](CO)NC(=O)[C@H](CCC(N)=O)NC(=O)[C@H](C)NC(=O)[C@H](CCCNC(=N)N)NC1=O [ANF 76] (H-TAPRSLRRSSCFTGSIDRIRAQSGLGCNSFRY-OH; disulfide 11-27; C-terminus assumed) | potency very similar to rat ANP | full agonists | – | 23.5
